Experimental data from US20040127492A1 (Pharmacia Corporation, priority 2002, published 2004).
Where two headings read alike, the source gives them in different places. One block for each molecule: values may come before it.

Key:
MAPKAPK2 (MK-2) = MAPKAPK2 (MK-2) (Homo sapiens, UniProt P49137); experiment: Determination of MK-2 IC50 (HSP-peptide phosphorylation, anion exchange resin capture assay); assay type: biochemical
How it was run: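 MAPKAPK2, preactivated by p38α with 0.25 mM ATP for 1 h at 30° C, used at 15 nM to phosphorylate HSP-peptide with 0.03 mM ATP plus [γ33P]ATP, pH 7.5, 2% DMSO, 30 min at 30° C. Labelled peptide counted after anion-exchange resin capture; IC50 from six ten-fold dilutions, triplicate.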

MK-3 = MK-3 (Homo sapiens, UniProt Q16644); experiment: MK-3 inhibition IC50 (similar method to MK-2, with appropriate modifications); assay type: biochemical; details: read-out: MK-3 Avg. IC50
Description: In practice, the selectivity of a cyclic pyrazole MK-2 inhibitor varies depending upon the condition under which the test is performed and on the inhibitors being tested. However, for the purposes of this specification, the selectivity of a cyclic pyrazole MK-2 inhibitor inhibitor can be measured as a ratio of the in vitro or in vivo IC50 value for inhibition of MK-3, divided by the IC50 value for inhibition of MK-2 (IC50 MK-3/IC50 MK-2). […] The MK-2 or MK-3 inhibiting activity of any of the compounds described herein can be determined by any one of several methods that are well known to those having skill in the art of enzyme activity testing. […] A similar method, with appropriate modifications, Can be used to measure MK-3 inhibitory activity. In addition, the efficacy of one of the present MK-2 inhibiting compounds in therapeutic applications can be determined by testing for inhibition of TNFα production in cell culture and in animal model assays.

[1] = Table 1, phenoxypyrazole MK-2 inhibitors, read-out: MK-2 Avg, IC50
[2] = Table 1, phenoxypyrazole MK-2 inhibitors
[3] = Table 2, pyrazolylpyrazole MK-2 inhibitors, read-out: MK-2 Avg. IC50
[4] = Table 2, pyrazolylpyrazole MK-2 inhibitors
[5] = Table 5, other cyclic pyrazole MK-2 inhibiting compounds, read-out: MK-2 Avg. IC50
[6] = Table 5, other cyclic pyrazole MK-2 inhibiting compounds

Sequence of MK-3 (Q16644 whole entry, species assumed): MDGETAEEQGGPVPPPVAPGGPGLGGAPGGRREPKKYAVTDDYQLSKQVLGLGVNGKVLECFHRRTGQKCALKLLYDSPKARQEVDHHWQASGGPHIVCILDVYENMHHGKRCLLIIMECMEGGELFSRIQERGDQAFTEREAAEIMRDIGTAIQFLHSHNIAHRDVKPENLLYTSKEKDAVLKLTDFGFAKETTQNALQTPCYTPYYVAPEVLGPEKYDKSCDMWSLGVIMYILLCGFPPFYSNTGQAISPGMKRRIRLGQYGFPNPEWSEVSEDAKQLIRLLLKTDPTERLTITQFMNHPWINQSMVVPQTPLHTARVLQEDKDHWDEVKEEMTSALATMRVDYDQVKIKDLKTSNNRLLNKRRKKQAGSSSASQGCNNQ
Sequence of MAPKAPK2 (MK-2) (P49137 whole entry, species assumed): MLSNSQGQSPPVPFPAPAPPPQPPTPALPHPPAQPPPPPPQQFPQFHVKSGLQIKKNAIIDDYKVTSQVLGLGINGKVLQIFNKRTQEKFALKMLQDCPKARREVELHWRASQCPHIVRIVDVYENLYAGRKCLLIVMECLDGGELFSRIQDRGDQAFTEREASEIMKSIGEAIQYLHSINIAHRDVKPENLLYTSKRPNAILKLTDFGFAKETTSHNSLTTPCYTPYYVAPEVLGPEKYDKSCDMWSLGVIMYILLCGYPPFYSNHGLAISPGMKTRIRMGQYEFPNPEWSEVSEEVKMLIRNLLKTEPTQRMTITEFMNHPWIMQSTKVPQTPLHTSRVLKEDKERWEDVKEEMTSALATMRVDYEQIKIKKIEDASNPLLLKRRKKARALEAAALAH

Structure (SMILES): O=C(O)c1c2c(nn1CCCNCCCc1cccc(Cl)c1)-c1ccncc1CC2 [Example 35]
- IC50 (MAPKAPK2 (MK-2); read-out: MK-2 Avg. IC50): 0.207 µM
- IC50 (MK-3): 8.57 µM

Structure (SMILES): NCCCn1nc2c(c1C(=O)O)CCc1cc(O)c(-c3ccncc3)cc1-2 [Example 23]
- IC50 (MAPKAPK2 (MK-2); [1]): 18.8 µM
- IC50 (MK-3; [2]): > 200 µM

Structure (SMILES): CCOC(=O)c1c2c(nn1CCCN)-c1cn[nH]c1CC2 [Example 33]
- IC50 (MAPKAPK2 (MK-2); [3]): 116 µM
- IC50 (MK-3; [4]): 186 µM

Structure (SMILES): C=CCSc1n[nH]c2c1-c1nn3c(c1CC2)C(=O)NCCC3 [Example 12]
- IC50 (MAPKAPK2 (MK-2); [3]): 10.8 µM
- IC50 (MK-3; [4]): 55.6 µM

Structure (SMILES): NCCCn1nc2c(c1C(=O)O)CCc1cnc(-c3ccc(O)cc3)cc1-2 [Example 3]
- IC50 (MAPKAPK2 (MK-2); read-out: MK-2 Avg. IC50): 0.0189 µM
- IC50 (MK-3): 0.361 µM

Structure (SMILES): O=C(O)c1c2c(nn1C1CCNCC1)-c1cn[nH]c1CC2 [Example 21]
- IC50 (MAPKAPK2 (MK-2); [3]): 60.4 µM
- IC50 (MK-3; [4]): ≥ 200 µM

Structure (SMILES): O=C(O)c1c2c(nn1CCCNCCc1cccs1)-c1cn[nH]c1CC2 [Example 7]
- IC50 (MAPKAPK2 (MK-2); [3]): 3.66 µM
- IC50 (MK-3; [4]): 55.2 µM

Structure (SMILES): O=C1NCCn2nc3c(c21)CCc1cnc(/C=C/c2ccc(C(F)(F)F)cc2)cc1-3 [Example 9]
- IC50 (MAPKAPK2 (MK-2); [5]): 2.26 µM
- IC50 (MK-3; [6]): > 20 µM

Structure (SMILES): NCCCn1nc2c(c1C(=O)O)CCc1[nH]nc(SCc3ccccc3)c1-2 [Example 6]
- IC50 (MAPKAPK2 (MK-2); [3]): 2.89 µM
- IC50 (MK-3; [4]): 22.1 µM

Structure (SMILES): CC(C)(CCc1cc2c(cc1O)CCc1c-2nn(CCCN)c1C(=O)O)CC(=O)O [Example 26]
- IC50 (MAPKAPK2 (MK-2); [1]): 22.2 µM
- IC50 (MK-3; [2]): 135 µM

Structure (SMILES): NC(=O)c1[nH]nc2c1CCc1c-2ccc(O)c1Br [Example 20]
- IC50 (MAPKAPK2 (MK-2); [1]): 17.6 µM
- IC50 (MK-3; [2]): > 200 µM

Structure (SMILES): COc1ccc(-c2cc3c(cn2)CCc2c-3nn3c2C(=O)NCCC3)cc1 [Example 25]
- IC50 (MAPKAPK2 (MK-2); read-out: MK-2 Avg. IC50): 0.142 µM
- IC50 (MK-3): 6.52 µM

Structure (SMILES): O=C(O)c1c2c(nn1CCCNCCc1ccsc1)-c1cn[nH]c1CC2 [Example 8]
- IC50 (MAPKAPK2 (MK-2); [3]): 7.84 µM
- IC50 (MK-3; [4]): 48.5 µM

Structure (SMILES): NCCCCn1nc2c(c1C(=O)O)CCc1[nH]ncc1-2 [Example 10]
- IC50 (MAPKAPK2 (MK-2); [3]): 10.1 µM
- IC50 (MK-3; [4]): ≥ 200 µM

Structure (SMILES): NCCCn1nc2c(c1C(=O)O)CCc1cnc(-c3cnc4ccccc4c3)cc1-2 [Example 1]
- IC50 (MAPKAPK2 (MK-2); read-out: MK-2 Avg. IC50): 0.00946 µM
- IC50 (MK-3): 0.0354 µM

Structure (SMILES): COc1cccc(/C=C/c2cc3c(cn2)CCc2c-3nn3c2C(=O)NCC3)c1 [Example 5]
- IC50 (MAPKAPK2 (MK-2); [5]): 0.328 µM
- IC50 (MK-3; [6]): 11.8 µM

Structure (SMILES): NCCCn1nc2c(c1C(=O)O)CCc1cc(O)c(CCC(F)(F)F)cc1-2 [Example 12]
- IC50 (MAPKAPK2 (MK-2); [1]): 8.11 µM
- IC50 (MK-3; [2]): 149 µM

Structure (SMILES): CSc1n[nH]c2c1-c1nn(CCCN)c(C(=O)O)c1CC2 [Example 1]
- IC50 (MAPKAPK2 (MK-2); [3]): 1.06 µM
- IC50 (MK-3; [4]): 47 µM

Structure (SMILES): NCCn1nc2c(c1C(=O)O)CCc1[nH]ncc1-2 [Example 4]
- IC50 (MAPKAPK2 (MK-2); [3]): 2.43 µM
- IC50 (MK-3; [4]): 63.3 µM

The remaining lines, values ahead:

- IC50 (MAPKAPK2 (MK-2); read-out: MK-2 Avg. IC50): 0.801 µM
- IC50 (MK-3): 44.8 µM
Structure (SMILES): O=C(O)c1c2c(nn1CCCNCCc1ccc(-c3ccccc3C(F)(F)F)cc1)-c1ccncc1CC2 [Example 70]

- IC50 (MAPKAPK2 (MK-2); read-out: MK-2 Avg. IC50): 3.01 µM
- IC50 (MK-3): 174 µM
Structure (SMILES): NCCCCn1nc2c(c1C(=O)O)CCc1cnccc1-2 [Example 113]

- IC50 (MAPKAPK2 (MK-2); [1]): 158 µM
- IC50 (MK-3; [2]): > 200 µM
Structure (SMILES): Cn1nc(C(N)=O)c2c1-c1ccc(O)cc1CC2 [Example 65]

- IC50 (MAPKAPK2 (MK-2); read-out: MK-2 Avg. IC50): 16.1 µM
- IC50 (MK-3): 40.4 µM
Structure (SMILES): O=C1NCC(CCCNCCc2ccc(Cl)cc2)n2nc3c(c21)CCc1cnccc1-3 (centres unmarked) [Example 178]

- IC50 (MAPKAPK2 (MK-2); [1]): > 200 µM
- IC50 (MK-3; [2]): > 200 µM
Structure (SMILES): O=C(O)c1n[nH]c2c1CC(c1ccccc1)c1cc(O)ccc1-2 (centres unmarked) [Example 113]

- IC50 (MAPKAPK2 (MK-2); [1]): 181 µM
- IC50 (MK-3; [2]): > 200 µM
Structure (SMILES): CC(C)(C)OC(=O)NCCCn1nc2c(c1C(=O)O)CCc1cc(O)ccc1-2 [Example 72]

- IC50 (MAPKAPK2 (MK-2); read-out: MK-2 Avg. IC50): 0.924 µM
- IC50 (MK-3): 27.8 µM
Structure (SMILES): O=C1NC(CNCCc2cccs2)Cn2nc3c(c21)CCc1cnccc1-3 (centres unmarked) [Example 73]

- IC50 (MAPKAPK2 (MK-2); [1]): > 200 µM
- IC50 (MK-3; [2]): > 200 µM
Structure (SMILES): C=CCn1nc2c(c1C(N)=O)CCc1cc(OCOCCOC)ccc1-2 [Example 80]

- IC50 (MAPKAPK2 (MK-2); [1]): > 200 µM
- IC50 (MK-3; [2]): > 200 µM
Structure (SMILES): COc1cc2c(cc1OC)-c1n[nH]c(C(=O)NN)c1CC2 [Example 170]

- IC50 (MAPKAPK2 (MK-2); [3]): ≥ 200 µM
- IC50 (MK-3; [4]): ≥ 200 µM
Structure (SMILES): CCOC(=O)c1c2c(nn1CC(F)(F)F)-c1cn[nH]c1CC2 [Example 72]

- IC50 (MAPKAPK2 (MK-2); [3]): ≥ 200 µM
- IC50 (MK-3; [4]): ≥ 200 µM
Structure (SMILES): CCOC(=O)c1c2c(nn1CCNC(=O)OC(C)(C)C)-c1cnn(C(c3ccccc3)(c3ccccc3)c3ccccc3)c1CC2 [Example 59]

- IC50 (MAPKAPK2 (MK-2); [3]): ≥ 200 µM
- IC50 (MK-3; [4]): ≥ 200 µM
Structure (SMILES): CC(C)(C)OC(=O)NCCCn1nc2c(c1C(N)=O)CCc1[nH]ncc1-2 [Example 66]
